# Measured values taken from US11953435B2, “Zinc-responsive fluorophores” (Northwestern University, priority 2019, dated 2024).
# Assay: Octanol-water partition coefficient (log P)
# Assay type: physicochemical
# Conditions: 1:1 HEPES buffer and 1-octanol
# Method: Aqueous solutions were prepared by using de-ionized water with resistivity […], obtained using a Milli-Q water purification system. In order to properly compare the photophysical properties of ZincBY-2, ZincBY-3, and ZincBY-4 to ZincBY-1, the photophysical properties of ZincBY-1 we remeasured. Tested values differed from the previously published values (Ref. B2; incorporated by reference in its entirety). It was determined that copper was present in the aqueous buffer used for in vitro analysis of the previous samples. The corrected values are used herein, utilizing buffers that are copper-free. Stock solutions of ZincBY-1, ZincBY-2, ZincBY-3, and ZincBY-4 were prepared at concentrations of 5 mM and stored at −20° C. in aliquots that were used immediately after thawing for each experiment. Unless otherwise stated, all spectroscopic methods were conducted in aqueous buffer containing 50 mM HEPES (pH 7.2) and 0.1 M KNO3. […] Fluorescence spectra were acquired using a PerkinElmer LS 55 fluorescence spectrophotometer. […] Quantum yields for apo and holo ZincBY-1, ZincBY-2, ZincBY-3, and ZincBY-4 were determined by plotting absorbance vs. fluorescence intensity of solutions containing ZincBY-1, ZincBY-2, ZincBY-3, or ZincBY-4 at probe concentrations ranging from 50-250 nM. […] Fluorescein dissolved in 0.1 N NaOH was used as the quantum yield standard, using a literature-determined quantum yield of 0.95.^3 For all fluorophore solutions, fluorescence excitation was set at 490 nm and fluorescence emission was integrated from 510 nm to 650 nm. […] Fluorescence spectra were recorded using zinc probes (ZincBY-1, ZincBY-2, ZincBY-3, or ZincBY-4; 200 nM) and ZnSO4 (various concentrations). […] Free Zn^2+ was calculated according to a previously reported method (Ref. B4; incorporated by reference in its entirety). […] The fluorescence spectra of zinc probes (ZincBY-2, ZincBY-3, or ZincBY-4; 200 nM) wasere measured at various pH values (4.5-11). […] The fluorescence spectra were compared to that of ZincBY-2 (200 nM), ZincBY-3 (200 nM), or ZincBY-4 (200 nM) in the presence of 10 μM TPEN. […]
row,SMILES,LogP
1,"Cc1cc(C)c(C2=C3C=CC(OCCN=[N+]=[N-])=[N+]3[B-](F)(F)n3c2ccc3N(CCN(Cc2ccccn2)Cc2ccccn2)Cc2ccccn2)c(C)c1 [ZincBY-2, N1-(7-(2-azidoethoxy)-5,5-difluoro-10-mesityl-5H-4λ4,5λ4-dipyrrolo[1,2-c:2′,1′-f][1,3,2]diazaborinin-3-yl)-N1,N2,N2-tris(pyridin-2-ylmethyl)ethane-1,2-diamine]",~1.25
2,"Cc1cc(C)c(C2=C3C=CC(OCCN)=[N+]3[B-](F)(F)n3c2ccc3N(CCN(Cc2ccccn2)Cc2ccccn2)Cc2ccccn2)c(C)c1 [ZincBY-3, N1-(7-(2-aminoethoxy)-5,5-difluoro-10-mesityl-5H-4λ4,5λ4-dipyrrolo[1,2-c:2′,1′-f][1,3,2]diazaborinin-3-yl)-N1,N2,N2-tris(pyridin-2-ylmethyl)ethane-1,2-diamine]",~0.15
3,"CC(=O)NCCOc1ccc2n1[B-](F)(F)[N+]1=C(N(CCN(Cc3ccccn3)Cc3ccccn3)Cc3ccccn3)C=CC1=C2c1c(C)cc(C)cc1C [ZincBY-4, N-(2-((7-((2-(bis(pyridin-2-ylmethyl)amino)ethyl)(pyridin-2-ylmethyl)amino)-5,5-difluoro-10-mesityl-5H-5λ4,6λ4-dipyrrolo[1,2-c:2′,1′-f][1,3,2]diazaborinin-3-yl)oxy)ethyl)acetamide]",~0.33
